Consider ten compounds from PubChem BioAssay (NCI).

Among the test systems are U251 CNS; ACHN renal; TK-10 renal; UO-31 renal; OVCAR-3 ovarian; K-562 leukemia; MOLT-4 leukemia; LOX IMVI melanoma; SK-MEL-28 melanoma; SK-MEL-2 melanoma; A498 renal; RPMI-8226 leukemia; A549 NSCLC; SW-620 colon; MDA-MB-231 breast; PC-3 prostate; HS 578T breast.
Holding throughout (assay): NCI anticancer screen, dose series, 48 h

Molecules are shown by their SMILES.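 Briefly, cells in 96-well plates were exposed to five compound concentrations for 48 h, and endpoints were estimated by linear interpolation. TGI is the concentration that stops growth completely.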

`COC(=O)C1[C@@H](C(=O)OC)C12C=Cc1ccccc1C=C2` (stereo partly specified): the TGI in the assay with U251 CNS, in the assay on ACHN renal, in the assay on TK-10 renal, in the assay on UO-31 renal, in the assay on OVCAR-3 ovarian and in the assay on K-562 leukemia was more than 100 µM each time. Further, the TGI in the assay with MOLT-4 leukemia, in the assay with LOX IMVI melanoma, in the assay on SK-MEL-28 melanoma, in the assay on SK-MEL-2 melanoma, with A498 renal and in the assay on RPMI-8226 leukemia was more than 100 µM in each case. Moreover, the TGI in the assay on A549 NSCLC and in the assay with SW-620 colon was more than 100 µM in each case.
For `CC1(C)CCC[C@@]2(C)C1CC[C@H]1CC(O)C3(C)CCC12C3` (stereo partly specified), the TGI with U251 CNS was 32.3 µM; in the assay on ACHN renal it was 31.8 µM; in the assay with TK-10 renal, 28.7 µM; with UO-31 renal, 33.3 µM; with OVCAR-3 ovarian, 30.7 µM; with K-562 leukemia, more than 100 µM. Moreover, the TGI in the assay on MOLT-4 leukemia is 44.5 µM; with LOX IMVI melanoma, 28.9 µM; in the assay with SK-MEL-28 melanoma, 33.7 µM; in the assay with RPMI-8226 leukemia it was 72.6 µM; in the assay with A549 NSCLC, 37.4 µM; with SW-620 colon, 30.8 µM.
As to `C#C[C@]1(O)CCC2C3CCc4cc(Oc5nc(F)nc(-c6c7cc8ccccc8cc7c7n6CCS7)n5)ccc4C3CCC21C` (stereo partly specified), the TGI in the assay on U251 CNS, in the assay on ACHN renal, with TK-10 renal, in the assay on UO-31 renal, with OVCAR-3 ovarian and in the assay on K-562 leukemia was more than 100 µM each time. Also, the TGI with MOLT-4 leukemia is more than 100 µM; in the assay on LOX IMVI melanoma, more than 100 µM; in the assay with SK-MEL-28 melanoma, more than 100 µM; in the assay on SK-MEL-2 melanoma, 89.7 µM; with RPMI-8226 leukemia it was more than 100 µM; with A549 NSCLC, more than 100 µM. For the same compound, the TGI in the assay with SW-620 colon is more than 100 µM.
Take `CSc1nc(NC(=O)O)c(N(C(C)=O)C(=O)O)c(=O)n1C`: the TGI with U251 CNS, in the assay on ACHN renal, with UO-31 renal, in the assay on OVCAR-3 ovarian, with K-562 leukemia and with MOLT-4 leukemia was more than 100 µM each time. The TGI with LOX IMVI melanoma, in the assay with SK-MEL-28 melanoma, in the assay on SK-MEL-2 melanoma, in the assay on A498 renal, in the assay with RPMI-8226 leukemia and with A549 NSCLC was more than 100 µM throughout. For the same compound, in the assay with SW-620 colon, the TGI was more than 100 µM.
Regarding `O=c1oc2ccccc2nc1/C=C(\O)c1ccc([N+](=O)[O-])cc1`, the TGI in the assay with U251 CNS, with ACHN renal, in the assay with TK-10 renal, in the assay on UO-31 renal, with OVCAR-3 ovarian and in the assay on K-562 leukemia was more than 100 µM throughout. Moreover, the TGI in the assay on MOLT-4 leukemia, in the assay on SK-MEL-2 melanoma, in the assay on MDA-MB-231 breast, with A498 renal, in the assay with A549 NSCLC and in the assay with PC-3 prostate was more than 100 µM throughout. Further, the TGI with HS 578T breast stood at 95.1 µM.
Turning to `CC1=CC(=O)C(=O)C2=C1OC1(C2)C(C)CCC2C3(C)CCC(O)C(C)(C)C3CCC21C` (stereo unspecified), the TGI was found to be 29.9 µM with U251 CNS; 31.9 µM in the assay on ACHN renal; 34.5 µM with TK-10 renal; 34.4 µM with UO-31 renal; 34.6 µM with OVCAR-3 ovarian; 54.1 µM in the assay with K-562 leukemia. For the same compound, the TGI in the assay with MOLT-4 leukemia was 78.4 µM; in the assay with LOX IMVI melanoma it was 35.8 µM; in the assay on SK-MEL-28 melanoma, 42.9 µM; in the assay on RPMI-8226 leukemia, 88.3 µM; in the assay on A549 NSCLC it was more than 100 µM; in the assay on SW-620 colon, 46.1 µM.
For `Cc1cccc2[s+]snc12`, the TGI in the assay with U251 CNS is more than 100 µM; with ACHN renal, more than 100 µM; with TK-10 renal, more than 100 µM; in the assay on UO-31 renal, more than 100 µM; in the assay with OVCAR-3 ovarian, more than 89 µM; in the assay with K-562 leukemia it was 59.3 µM. For the same compound, the TGI was more than 65.2 µM with MOLT-4 leukemia; more than 100 µM with LOX IMVI melanoma; more than 70.7 µM in the assay on SK-MEL-28 melanoma; more than 100 µM in the assay with SK-MEL-2 melanoma; more than 100 µM in the assay with A498 renal; more than 81.4 µM in the assay on RPMI-8226 leukemia. For the same compound, the TGI is more than 100 µM in the assay on A549 NSCLC and 48.9 µM in the assay with SW-620 colon.
For `O=C(c1cccs1)N(C(=S)N1CCN(c2ccccn2)CC1)C1CCCCC1`, the TGI with U251 CNS, in the assay on ACHN renal, in the assay with TK-10 renal, in the assay on UO-31 renal, with OVCAR-3 ovarian and in the assay with K-562 leukemia was more than 100 µM each time. Besides, the TGI with MOLT-4 leukemia, with LOX IMVI melanoma, with SK-MEL-28 melanoma, with SK-MEL-2 melanoma, with RPMI-8226 leukemia and in the assay on A549 NSCLC was more than 100 µM throughout. In the assay on SW-620 colon, this compound yielded a TGI of more than 100 µM.
For the compound `COc1cc(C=Nc2ccc(C(C)C)cc2)cc(OC)c1OC`, the TGI was more than 100 µM with U251 CNS; more than 100 µM in the assay on ACHN renal; more than 100 µM in the assay with TK-10 renal; more than 100 µM with UO-31 renal; more than 100 µM in the assay on OVCAR-3 ovarian; more than 86.7 µM with K-562 leukemia. Also, the TGI was more than 100 µM with MOLT-4 leukemia; more than 100 µM in the assay on LOX IMVI melanoma; more than 100 µM in the assay on SK-MEL-28 melanoma; more than 100 µM with SK-MEL-2 melanoma; more than 100 µM in the assay on A498 renal; more than 68.4 µM in the assay on RPMI-8226 leukemia. Moreover, the TGI in the assay with A549 NSCLC is more than 100 µM; with SW-620 colon, more than 54.6 µM.
For the compound `CC/C=C/C(=O)CC(O)(C(F)(F)F)C(F)(F)F`, the TGI in the assay with U251 CNS, in the assay with ACHN renal, in the assay on TK-10 renal, in the assay on UO-31 renal, in the assay on MOLT-4 leukemia and with LOX IMVI melanoma was more than 100 µM throughout. Also, the TGI with SK-MEL-28 melanoma was more than 100 µM; in the assay on MDA-MB-231 breast it was more than 100 µM; in the assay on A498 renal, 89.4 µM; in the assay on RPMI-8226 leukemia it was more than 100 µM; in the assay on A549 NSCLC, more than 100 µM; with SW-620 colon, more than 100 µM. Besides, the TGI in the assay on HS 578T breast was more than 100 µM.
